Measurements taken from article PMC3173180 (The Journal of Biological Chemistry, 2011).

B1: IbpA-Fic2 (untagged) (Histophilus somni 2336) (protein)
chain: DETANKVNYQDLEDNLNLKGLISLEDDRNANFESNVLKNEKFLDEAREISKKSIPEATVKQMSHLPEFDDILTEGAKKVESRINKAITFRPSVEEFSEIQDLVKTLPKTKVIEDLSTKTNEITEALAATSKTIQRTPELKEQLKTAIEDFLQNSQGKPLTVQMIENLNHGLRPDEGEGRLLYKKENLTKENAVFSSPEAAKIQLAETVDFINRAKNEGIEPSVVGALVYQRLIAYHPFAEGNGRMARVIVNKILLDAGYPAFTKFSDEFEPQIIPQTKASTKSATSSEVVVEFLKELAKKGSKEDNEQNLEKTDRT

Legend:
IbpA-Fic1 = target: T1, IbpA-Fic1 (Histophilus somni, UniProt Q06277); test: SDS-PAGE autoradiography of modified Cdc42; type: biochemical
T1 sequence (Q06277 2994-3358): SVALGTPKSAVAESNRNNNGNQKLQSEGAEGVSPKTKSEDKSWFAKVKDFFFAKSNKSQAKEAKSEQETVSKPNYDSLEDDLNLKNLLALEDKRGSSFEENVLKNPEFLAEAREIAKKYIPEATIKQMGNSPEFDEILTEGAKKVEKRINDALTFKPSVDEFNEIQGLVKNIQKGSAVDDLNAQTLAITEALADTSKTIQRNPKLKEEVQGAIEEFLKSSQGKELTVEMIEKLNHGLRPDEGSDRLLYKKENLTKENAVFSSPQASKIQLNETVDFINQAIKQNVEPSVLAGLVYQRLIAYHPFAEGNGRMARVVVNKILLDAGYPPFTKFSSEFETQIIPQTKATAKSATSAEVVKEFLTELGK

PfhB2-Fic2 = target: T2, PfhB2-Fic2 (Pasteurella multocida, UniProt Q9CPH9); test: SDS-PAGE autoradiography of modified Cdc42; type: biochemical
T2 sequence (Q9CPH9 3309-3609): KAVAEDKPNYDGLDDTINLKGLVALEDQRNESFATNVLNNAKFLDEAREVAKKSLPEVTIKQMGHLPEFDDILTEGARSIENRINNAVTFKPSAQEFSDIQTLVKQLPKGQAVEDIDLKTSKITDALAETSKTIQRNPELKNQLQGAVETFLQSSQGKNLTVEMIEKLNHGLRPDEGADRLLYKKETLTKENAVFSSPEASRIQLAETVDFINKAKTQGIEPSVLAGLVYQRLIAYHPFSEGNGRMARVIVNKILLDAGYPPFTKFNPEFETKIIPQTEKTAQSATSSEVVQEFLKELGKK

PfhB2-Fic1 = target: T3, PfhB2-Fic1 (Pasteurella multocida, UniProt Q9CPH9); test: SDS-PAGE autoradiography of modified Cdc42; type: biochemical
T3 sequence (Q9CPH9 2892-3191): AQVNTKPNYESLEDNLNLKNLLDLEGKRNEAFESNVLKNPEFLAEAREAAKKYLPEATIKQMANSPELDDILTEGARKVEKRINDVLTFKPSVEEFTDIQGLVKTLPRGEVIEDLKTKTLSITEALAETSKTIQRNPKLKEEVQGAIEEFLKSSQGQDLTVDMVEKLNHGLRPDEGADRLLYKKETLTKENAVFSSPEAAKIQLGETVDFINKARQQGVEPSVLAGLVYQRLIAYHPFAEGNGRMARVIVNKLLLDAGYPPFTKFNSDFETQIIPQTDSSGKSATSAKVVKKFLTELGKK

HYPE-Fic = target: T4, HYPE-Fic (Homo sapiens, UniProt Q9BVA6); test: SDS-PAGE autoradiography of modified Cdc42; type: biochemical
T4 sequence (Q9BVA6 181-458): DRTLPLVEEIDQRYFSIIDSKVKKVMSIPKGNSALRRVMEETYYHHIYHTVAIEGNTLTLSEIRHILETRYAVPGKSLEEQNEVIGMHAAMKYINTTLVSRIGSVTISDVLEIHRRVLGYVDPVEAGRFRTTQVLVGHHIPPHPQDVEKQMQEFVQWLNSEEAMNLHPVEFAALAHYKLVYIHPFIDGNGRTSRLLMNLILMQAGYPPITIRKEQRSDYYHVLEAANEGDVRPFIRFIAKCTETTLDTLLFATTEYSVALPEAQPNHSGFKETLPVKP

purified protein = substrate: Nc1ncnc2c1ncn2[C@@H]1O[C@H](COP(=O)(O)OP(=O)(O)OP(=O)(O)O)[C@@H](O)[C@H]1O; test: purified protein; details: pH 7.4; 25.0 °C

Molecule | SDS-PAGE autoradiography of modified Cdc42 (IbpA-Fic1) | SDS-PAGE autoradiography of modified Cdc42 (PfhB2-Fic2) | SDS-PAGE autoradiography of modified Cdc42 (PfhB2-Fic1) | SDS-PAGE autoradiography of modified Cdc42 (HYPE-Fic) | Km (purified protein) [µM] | kcat (purified protein) [s⁻¹]
Nc1ncnc2c1ncn2[C@@H]1O[C@H](COP(=O)(O)OP(=O)(O)OP(=O)(O)O)[C@@H](O)[C@H]1O [ATP] | ATP was the preferred nucleotide source for all the Fic domains tested | ATP was the preferred nucleotide source for all the Fic domains tested | ATP was the preferred nucleotide source for all the Fic domains tested | HYPE-Fic efficiently uses ATP, and CTP to a lesser degree, to modify Cdc42 | – | –
B1 | – | – | – | – | 730 ± 40 | 111 ± 2
